US20230000876A1, “TREATING CANCERS WITH A CYCLIN-DEPENDENT KINASE INHIBITOR” (Nuvation Bio Inc., priority 2021, published 2023)

Key:
[1] = tested on: 22Rv1 tumors; experiment: 22Rv1 prostate tumor model (Example 3); assay type: in vivo, male Balb/c nude mice; conditions: for Tumor volume (mean ± SEM): 30 mg/kg PO QD
Description: The in vivo anti-tumor efficacy of the compound of formula (I) either alone or in combination with enzalutamide prostate tumor model on male Balb/c nude mice was evaluated. The cell line is derived from a xenograft that was serially propagated in mice after castration—induced regression and relapse of the parental, androgen-dependent CWR22 xenograft.
In the study, the compound of formula (I) was dosed orally (po) once daily (QD) and enzalutamide, when administered, was dosed orally once daily for 25 days, as shown in Table 8.
The 22Rv1 tumor cells were maintained in vitro in RPMI1640 medium supplemented with 10% heat inactivated fetal bovine serum at 37° C. in an atmosphere of 5% CO2 in air. The tumor cells were routinely subcultured twice weekly. The cells growing in an exponential growth phase were harvested and counted for tumor inoculation.
Each mouse was inoculated subcutaneously at the right flank with 22Rv1 tumor cells (5*10^6) with 50% Matrigel for tumor development. The treatments were started on day 7 after tumor inoculation when the average tumor volume reached 94 mm^3. A total of 48 mice were selected and assigned into 6 groups. The testing articles were administrated to the mice according to Table 8.
The major endpoint was to see if the tumor growth could be delayed or mice could be cured. Tumor size was measured twice weekly in two dimensions using a caliper, and the volume was expressed in mm^3 using the formula: V=0.5 a×b^2 where a and b are the long and short diameters of the tumor, respectively. The tumor sizes are then used for the calculation of T/C and TGI values.
(§1) The T/C value (in percent) is an indication of antitumor effectiveness; T and C are the mean volume of the treated and control groups, respectively, on a given day.
(§2) TGI was calculated for each group using the formula: TGI (%)=[1−(Ti−T0)/(Vi−V0)]×100; Ti is the average tumor volume of a treatment group on PG-Di, T0 is the average tumor volume of the treatment group on the day of treatment start, Vi is the average tumor volume of the vehicle control group on the same day with Ti, and V0 is the average tumor volume of the vehicle group on the day of treatment start.
All groups were taken down on PG-D24 and PG-D25 when the average tumor size of vehicle group reached 2305 mm^3.
Summary statistics, including mean and the standard error of the mean (SEM), are provided for the tumor volume of each group at each time point. For comparison among groups, a one-way ANOVA was performed. All the analysis were conducted using GraphPad Prism software. p<0.05 was considered to be statistically significant.

[2] = tested on: tumor fragments from a mCRPC patient; experiment: Enzalutamide-resistant patient-derived xenograft prostate model (ST2347 PDX); assay type: in vivo, male Balb/c nude mice; conditions: 30 mg/kg oral QD
[3] = tested on: VCap prostate cancer; experiment: Non-castrated VCap prostate cancer model; assay type: in vivo, male CB17/Scid mice; conditions: Group 2: Enzalutamide 20 mg/kg p.o. QD * 26 days
Description: Compound (I), enzalutamide, and abiraterone were tested in non-castrated VCap prostate cancer model in male CB17/Scid mice.
All treatment groups reduced mean tumor volume.

[4] = tested on: ACHN-luc2; experiment: CellTiter-Glo anti-proliferation assay, ACHN-luc2; assay type: cell-based
Description: (§3) The anti-proliferation effect of 2 compounds (the compound of formula (I) and temozolomide) in 7 CNS metastasis cell lines (MOLT-4-luc, Nalm-6-luc, NCI-H460-luc, ACHN-luc2, PC-9-luc, H1975-luc, and KM12-luc) was evaluated.
(§4) The plating of cells and compound treatments are shown below in the plate map (Table 12). One plate was needed for the test of 2 compounds (the compound of formula (I) and temozolomide) in one cell line. The compound of formula (I) was tested from 10 μM, 3-fold serial dilution. Temozolomide was tested from 100 μM, 3-fold serial dilution.
(§5) All the cell lines were maintained in culture conditions at 37° C. in an atmosphere with 5% CO2 in air. The tumor cells were routinely subcultured. The cells growing in an exponential growth phase were harvested and counted for plating.
(§6) Cells were counted by haemocytometer with Trypan blue staining. Next, 135 μL of cell suspension were plated into the assay plates according to the plate map and 135 μL of assay medium into the blank wells. The plates were incubated at 37° C., 5% CO2, 95% air and 100% relative humidity overnight.
(§7) 4.4.4 Compound Plate (10×) Preparation and Compound Treatment • 10× concentrate compound plate preparation: Add 198 μL of assay medium into each well of the V-bottom plate; then transfer 2 μL of the stock compound solution of each concentration from the stock plate. Add 2 μL of DMSO into the Blank and Control wells. Pipette up and down to mix well. This V-plate is designated as the 10× concentrate compound plate. • For day 0 plate, add 15 μL of the DMSO-medium into the Control wells. The final DMSO concentration was 0.1%. Then directly proceed to cell viability assay. • For assay plate, add 15 μL of the compound-medium of each well from the 10× concentrate compound plate into the cells in 96-well assay plate according to the plate map. Add 15 μL of the DMSO-medium into the Blank and Control wells. The final DMSO concentration was 0.1%. • Return the assay plate into incubator and incubate for 6 days.
(§8) The procedures were performed according to the Promega CellTiter-Glo Luminescent Cell Viability Assay Kit manual (Promega-G7573). • The CellTiter-Glo buffer was thawed and equilibrated to room temperature prior to use. • CellTiter-Glo Substrate was equilibrated to room temperature prior to use. • The entire liquid volume of CellTiter-Glo Buffer was transferred into the amber bottle containing CellTiter-Glo Substrate to reconstitute the lyophilized enzyme/substrate mixture. This forms the CellTiter-Glo Reagent. • The contents were mixed by gently vortexing to obtain a homogeneous solution. • The plate was equilibrated and its contents to room temperature for approximately 30 minutes. 75 μL (equal to the half volume of culture medium present in each well) CellTiter-Glo • Reagent was added in each well. Plates were covered with aluminum foil to protect from light. • The contents were mixed for 2 minutes on an orbital shaker to induce cell lysis. • The plate was incubated at room temperature for 20 minutes to stabilize luminescent signal. • Record luminescence on the 2104 EnVision plate reader.
(§9) Inhibition rate (IR) of the tested compounds was determined by the following formula: IR (%)=(1−(RLU compound−RLU day0)/(RLU control−RLU day0))*100%. The inhibitions of different dose of compound were calculated in Excel file, and then were used to plot inhibition curves and evaluate related parameters, such as Min (%), Max (%) and GI50. The data were interpreted by GraphPad Prism.

[5] = tested on: NCI-H460-luc; experiment: CellTiter-Glo anti-proliferation assay, NCI-H460-luc; assay type: cell-based
Description: as §3, §4, §5, §6, §7, §8, §9

[6] = tested on: H1975-luc; experiment: CellTiter-Glo anti-proliferation assay, H1975-luc; assay type: cell-based
Description: as §3, §4, §5, §6, §7, §8, §9

[7] = tested on: KM12-luc; experiment: CellTiter-Glo anti-proliferation assay, KM12-luc; assay type: cell-based
Description: as §3, §4, §5, §6, §7, §8, §9

[8] = tested on: MOLT-4-luc; experiment: CellTiter-Glo anti-proliferation assay, MOLT-4-luc; assay type: cell-based
Description: as §3, §4, §5, §6, §7, §8, §9

[9] = tested on: Nalm-6-luc; experiment: CellTiter-Glo anti-proliferation assay, Nalm-6-luc; assay type: cell-based
Description: as §3, §4, §5, §6, §7, §8, §9

[10] = tested on: PC-9-luc; experiment: CellTiter-Glo anti-proliferation assay, PC-9-luc; assay type: cell-based
Description: as §3, §4, §5, §6, §7, §8, §9

[11] = tested on: U-87MG-luc orthotopic intracranial tumors; experiment: U-87MG-luc glioblastoma orthotopic intracranial model, survival; assay type: in vivo, female BALB/c nude mice; conditions: 1 mg/kg PO*QD × 5/7 days (vehicle 37 days)
Description: U-87MG-luc cells were derived from U-87MG parental cells acquired from ATCC by stably introducing the gene that encodes the luciferase (luc) protein. The U-87MG-luc cells were cultured at 37° C. in an atmosphere of 5% CO2 in air. The tumor cells were routinely subcultured twice weekly. The cells growing in an exponential growth phase were harvested and counted for tumor inoculation.
3×10^5 U-87MG-luc tumor cells were micro-injected into the right lobe (caudate nucleus) of the brain of each mouse. A total of 94 mice were inoculated. Ten days after cell inoculation, bioluminescence were measured by Xenogen IVIS Lumina II machine, 70 mice were selected and randomly assigned into 7 groups based on bioluminescence intensity and bodyweight. The mice were dosed according to Table 25.

[12] = tested on: U-118MG xenograft tumors; experiment: U-118MG glioma subcutaneous xenograft model; assay type: in vivo, female CB17 SCID mice; conditions: QD; for Tumor volume (mean ± SEM): 1 mg/kg PO
Description: The tumor cells were routinely subcultured twice weekly. The cells growing in an exponential growth phase were harvested and counted for tumor inoculation.
The treatments was started on day 7 after tumor inoculation when the average tumor volume reached 150 mm^3. 60 mice were selected and assigned into 6 groups. The testing articles were administrated to the mice according to Table 1.
Tumor size was measured twice weekly in two dimensions using a caliper, and the volume was expressed in mm^3 using the formula: V=0.5 a×b^2 where a and b are the long and short diameters of the tumor, respectively. The tumor sizes are then used for the calculation of T/C and TGI values.
as §1
as §2, with “PG-D28” for “PG-Di,”
All Groups were taken down on PG-D28, tumor, plasma and brain samples were collected.
For statistical analysis for difference among groups 2-6 and group 1, a one-way ANOVA was performed. All the analysis were conducted using GraphPad Prism software. p<0.05 was considered to be statistically significant.

[13] = enzalutamide 30 mg/kg QD, PG-D24
[14] = inhibition rate, 6 days, Compound (I) from 10 μM, temozolomide from 100 μM, 3-fold, 9 points
[15] = 144 h, 6 days incubation, read-out: Absolute GI50
[16] = Group 6: Temozolomide 1 mg/kg PO, PG-D27

## CNC(=O)c1ccc(N2C(=S)N(c3ccc(C#N)c(C(F)(F)F)c3)C(=O)C2(C)C)cc1F [Enzalutamide, reference compound]
[1]; day 0
  Tumor volume (mean ± SEM): 94 ± 4 mm^3
[1]; day 3
  Tumor volume (mean ± SEM): 177 ± 13 mm^3
[1]; day 7
  Tumor volume (mean ± SEM): 345 ± 23 mm^3
[1]; day 10
  Tumor volume (mean ± SEM): 507 ± 53 mm^3
[1]; day 14
  Tumor volume (mean ± SEM): 825 ± 65 mm^3
[1]; day 17
  Tumor volume (mean ± SEM): 1115 ± 65 mm^3
[1]; day 21
  Tumor volume (mean ± SEM): 1531 ± 143 mm^3
[1]; day 24
  Tumor volume (mean ± SEM): 1814 ± 186 mm^3
[1]; [13]
  T/C: 78.69%
  TGI: 22.17%
[2]
  Antitumor activity over the course of the treatment: minimal effect
[3]; Day 0
  Tumor volume (mean ± SEM): 171.8 ± 6.1 mm^3
[3]; Day 4
  Tumor volume (mean ± SEM): 287.4 ± 17^ mm^3
[3]; Day 7
  Tumor volume (mean ± SEM): 352.2 ± 28.8 mm^3
[3]; Day 11
  Tumor volume (mean ± SEM): 542.8 ± 50.7 mm^3
[3]; Day 14
  Tumor volume (mean ± SEM): 662.7 ± 51.7 mm^3
[3]; Day 18
  Tumor volume (mean ± SEM): 761.9 ± 60.9 mm^3
[3]; Day 21
  Tumor volume (mean ± SEM): 891.2 ± 82.8 mm^3
[3]; Day 25
  Tumor volume (mean ± SEM): 1005.9 ± 71.4 mm^3

## Cn1nnc2c(C(N)=O)ncn2c1=O [Temozolomide, reference compound]
[4]; ACHN-luc2, 144 h, 6 days incubation, read-out: Absolute GI50
  GI50: > 100 µM
[4]; [14]
  Max (%): 20.0%
  Min (%): 2.8%
[5]; NCI-H460-Luc, 144 h, 6 days incubation, read-out: Absolute GI50
  GI50: > 100 µM
[5]; [14]
  Max (%): 7.2%
  Min (%): 4.8%
[6]; [15]
  GI50: > 100 µM
[6]; [14]
  Max (%): 13.0%
  Min (%): −0.3%
[7]; KM12-Luc, 144 h, 6 days incubation, read-out: Absolute GI50
  GI50: > 100 µM
[7]; [14]
  Max (%): 1.6%
  Min (%): −12.1%
[8]; [15]
  GI50: > 100 µM
[8]; [14]
  Max (%): 23.2%
  Min (%): −2.2%
[9]; [15]
  GI50: > 100 µM
[9]; [14]
  Max (%): 22.9%
  Min (%): 6.5%
[10]; [15]
  GI50: > 100 µM
[10]; [14]
  Max (%): 5.6%
  Min (%): −13.1%
[11]
  Median survival: 44 days
[12]; day 0
  Tumor volume (mean ± SEM): 154 ± 12 mm^3
[12]; day 3
  Tumor volume (mean ± SEM): 239 ± 18 mm^3
[12]; day 7
  Tumor volume (mean ± SEM): 306 ± 17 mm^3
[12]; day 10
  Tumor volume (mean ± SEM): 346 ± 22 mm^3
[12]; day 14
  Tumor volume (mean ± SEM): 358 ± 22 mm^3
[12]; day 17
  Tumor volume (mean ± SEM): 395 ± 30 mm^3
[12]; day 21
  Tumor volume (mean ± SEM): 411 ± 31 mm^3
[12]; day 24
  Tumor volume (mean ± SEM): 423 ± 35 mm^3
[12]; day 28
  Tumor volume (mean ± SEM): 473 ± 44 mm^3
[12]; [16]
  T/C: 74.94%
  TGI: 33.24%
  Tumor Size: 473 ± 44 mm^3
